Tests used:
chimeric PR-1a/GUS gene [1] = assay: GUS induction in transformed carrot callus; format: cell-based; settings: carrot callus transformed by pCIB271; 50 mM sodium salicylate or 250 g/l methyl ester spray; 21 hours; H2O spray 5.2
Description: To surface sterilize the carrots they are peeled and then soaked 20 minutes in a 10% solution of chlorox. The carrots are rinsed with sterile water, sliced into 5 mm pieces and placed basal side up onto water agar. 20-50 l of bacteria are then applied to the upper surface of the discs. After 7 days the discs are transferred to 0.7% agar containing MS salts, 3% sucrose, 0.1 mg/l 2,4-D, […] kanamycin, 100 µg/ml carbenicillin, and 100 µg/ml mefoxin. Callus forming around the cambial ring is excised and placed on 0.7% MS agar supplemented with 3% sucrose, 0.1 mg/l 2,4-D, […] kanamycin, 100 µg/ml carbenicillin, and 100 µg/ml mefoxin. After the callus has been grown it is cut into small pieces and randomized onto four plates of the same media. […]
(§1) The reactions are carried out in the wells of ELISA plates by mixing 5-25 l extract with 120-100 l GUS assay buffer (50 mM sodium phosphate buffer pH 7.0, 0.1% Triton X-100, 10 mM β-mercaptoethanol) containing 4-methyl umbelliferyl glucuronide (MU) at a final concentration of 2 mM in a total volume of 125 l. […] The concentration of fluorescent indicator released is determined by reading the plate on a Flow Labs Fluoroskan II ELISA plate reader.

chimeric PR-1a/GUS gene [2] = assay: GUS induction in transformed tobacco callus; format: cell-based, Nicotiana tabacum
Description: Agrobacterium strains containing the appropriate vectors are used to transform callus forming from the leaf disks (Example 112). Callus forming on kanamycin-containing MSBN selection medium is maintained on a callus growth medium comprised of MS major, minor salts and Fe-EDTA (Gibco #500-1117; 4.3 g/l), MS vitamins, 100 mg/l myo-inositol, 20 g/l sucrose, 2 mg/l naphthaleneacetic acid and 0.3 mg/l kinetin.
The callus can be used to regenerate transgenic plants by transferring callus pieces to MSBN medium and following methods described in Examples 111 and 112. The callus is also used to measure gene induction following application of inducing chemicals and to screen for gene inducing chemicals.
A. Callus obtained according to previously described procedures is assayed for chemical induction by applying with a sterile paint brush or a plant mister a filter sterilized solution of 0.1 to 50 mM salicylic acid which has been adjusted to a pH between 6.0 and 8.0 by the addition of NaOH. […]
(§2) (3) Methyl benzo-1,2,3-thiadiazole-7-carboxylate. The solution is made by resuspending a wettable powder containing the chemical in sterile water for several minutes at a concentration of 1 mg/ml. Insoluble solid is removed from the solution by filter sterilizing.
Frozen leaf tissue is ground in a mortar with a pestle in the presence of liquid nitrogen to produce a fine powder. […]
as §1, with “reader. […]” for “reader.”

chimeric PR-1a/GUS gene [3] = assay: Chemical induction of chimeric PR-1a/GUS gene in transgenic tobacco plants, β-glucuronidase assay of leaf extracts; format: in vivo, Nicotiana tabacum
Description: A. Gene expression is induced in plants obtained according to previously described procedures by applying a fine spray of a solution of 0.1 to 50 mM salicylic acid which has been adjusted to a pH between 6.0 and 8.0 with NaOH, to the leaves using a plant mister.
The plants are allowed to continue to grow for two days and are then harvested, frozen in liquid nitrogen and stored at −80° C. until they are assayed as described in Example 65 and/or Example 66.
B. Alternatively, the following solutions are used for induction:
as §2
Frozen leaf tissue is ground in a mortar with a pestle in the presence of liquid nitrogen to produce a fine powder. Leaf extracts are prepared by mixing a given weight (g) with an equal volume (ml) of GUS extraction buffer (50 mM sodium phosphate buffer pH 7.0, 0.1% Triton-X 100, 0.1% sarkosyl, 10 mM β-mercaptoethanol) as described by Jefferson, R. A. et al., Proc. Natl. Acad. Sci. USA 83: 8447-8451 (1986).
The reactions are carried out in the wells of ELISA plates by mixing 5-25 l extract with 120-100 l GUS assay buffer (50 mM sodium phosphate buffer pH 7.0, 0.1% Triton X-100, 10 mM β-mercaptoethanol) containing 4-methyl umbelliferyl glucuronide (MU) at a final concentration of 2 mM in a total volume of 125 l. The plate is incubated at 37° C. for 1-5 hours and the reaction is stopped by the addition of 150 l 3 M Na2CO3. The concentration of fluorescent indicator released is determined by reading the plate on a Flow Labs Fluoroskan II ELISA plate reader.

[4] = tobacco plant Alu 1 (CIB272), water 5.6, buffer 20.5
[5] = tobacco plant Alu 2 (CIB272), water 2.0, buffer 8.9
[6] = tobacco plant Alu 3 (CIB272), water 0.1, buffer 2.0
[7] = tobacco plant Alu 4 (CIB272), water 2.1, buffer 6.1
[8] = tobacco plant Alu 5 (CIB272), water 0.6, buffer 0.5
[9] = tobacco plant Alu 6 (CIB272), water 0.8, buffer 3.1
[10] = tobacco plant Alu 7 (CIB272), water 1.7, buffer 21.7
[11] = tobacco plant Alu 8 (CIB272), water 0.6, buffer 0.6
[12] = tobacco plant Alu 9 (CIB272), water 0.9, buffer 0.3
[13] = tobacco plant Alu 10 (CIB272), water 4.0, buffer 8.1
[14] = tobacco plant Alu 11 (CIB272), water 1.6, buffer 2.2
[15] = tobacco plant Alu 12 (CIB272), water 0.7, buffer 2.3
[16] = tobacco plant Alu 13 (CIB272), water 0.1, buffer 1.9
[17] = tobacco plant H 1 (CIB271), water 5.39, buffer 20.1
[18] = tobacco plant H 3 (CIB271), water 0.21, buffer 1.66
[19] = tobacco plant H 4 (CIB271), water 8.39, buffer 2.28
[20] = tobacco plant H 6 (CIB271), water 0.10, buffer 0.09
[21] = tobacco plant H 9 (CIB271), water 0.23, buffer 0.5
[22] = tobacco plant Hae 1 (CIB273), water 0.6, buffer 1.7
[23] = tobacco plant Hae 2 (CIB273), water 2.3, buffer 0.4
[24] = tobacco plant Hae 3 (CIB273), water 1.7, buffer 3.0
[25] = tobacco plant Hae 4 (CIB273), water 2.0, buffer 1.7
[26] = tobacco plant Hae 5 (CIB273), water 18.1, buffer 36.6
[27] = tobacco plant Hae 8 (CIB273), water 0.4, buffer 0.6
[28] = tobacco plant Hae 9 (CIB273), water 2.6, buffer 12.5
[29] = tobacco plant Hae 10 (CIB273), water 1.6, buffer 13.5
[30] = tobacco plant Hae 11 (CIB273), water 2.6, buffer 3.9
[31] = tobacco plant Hae 12 (CIB273), water 0.2, buffer 0.6
[32] = tobacco plant Hae 13 (CIB273), water 0.01, buffer nd
[33] = tobacco plant Hae 14 (CIB273), water 0.1, buffer 0.1
[34] = tobacco plant Hae 15 (CIB273), water 0.1, buffer 3.4
[35] = tobacco plant Hae 16 (CIB273), water 0.1, buffer 0.8

Structure (SMILES) | GUS activities (chimeric PR-1a/GUS gene [1]) [pKat MU/mg protein] | Specific Activity nKat MU/mg protein (chimeric PR-1a/GUS gene [3]; [4]) [nKat MU/mg protein] | Specific Activity nKat MU/mg protein (chimeric PR-1a/GUS gene [3]; [5]) [nKat MU/mg protein] | Specific Activity nKat MU/mg protein (chimeric PR-1a/GUS gene [3]; [6]) | Specific Activity nKat MU/mg protein (chimeric PR-1a/GUS gene [3]; [7]) [nKat MU/mg protein] | Specific Activity nKat MU/mg protein (chimeric PR-1a/GUS gene [3]; [8]) | Specific Activity nKat MU/mg protein (chimeric PR-1a/GUS gene [3]; [9]) [nKat MU/mg protein] | Specific Activity nKat MU/mg protein (chimeric PR-1a/GUS gene [3]; [10]) [nKat MU/mg protein] | Specific Activity nKat MU/mg protein (chimeric PR-1a/GUS gene [3]; [11]) [nKat MU/mg protein] | Specific Activity nKat MU/mg protein (chimeric PR-1a/GUS gene [3]; [12]) [nKat MU/mg protein] | Specific Activity nKat MU/mg protein (chimeric PR-1a/GUS gene [3]; [13]) [nKat MU/mg protein] | Specific Activity nKat MU/mg protein (chimeric PR-1a/GUS gene [3]; [14]) | Specific Activity nKat MU/mg protein (chimeric PR-1a/GUS gene [3]; [15]) [nKat MU/mg protein] | Specific Activity nKat MU/mg protein (chimeric PR-1a/GUS gene [3]; [16]) [nKat MU/mg protein] | Specific Activity nKat MU/mg protein (chimeric PR-1a/GUS gene [3]; [17]) [nKat MU/mg protein] | Specific Activity nKat MU/mg protein (chimeric PR-1a/GUS gene [3]; [18]) [nKat MU/mg protein] | Specific Activity nKat MU/mg protein (chimeric PR-1a/GUS gene [3]; [19]) [nKat MU/mg protein] | Specific Activity nKat MU/mg protein (chimeric PR-1a/GUS gene [3]; [20]) | Specific Activity nKat MU/mg protein (chimeric PR-1a/GUS gene [3]; [21]) [nKat MU/mg protein] | Specific Activity nKat MU/mg protein (chimeric PR-1a/GUS gene [3]; [22]) [nKat MU/mg protein] | also measured
COC(=O)c1cccc2nnsc12 [Methyl benzo-1,2,3-thiadiazole-7-carboxylate] | 22.1 | 206.9 | 83.2 | 2.0 ± .9 nKat MU/mg protein | 7.1 ± 2.6 | 1.2 ± .6 nKat MU/mg protein | 67.0 | 29.1 | 0.4 | 0.4 | 52.0 | 2.8 ± 1.3 nKat MU/mg protein | 73.4 | 13.2 | 13.5 ± 0.8 | 11.95 ± 0.85 | 18.52 ± 1.07 | 2.58 ± .01 nKat MU/mg protein | 9.1 | 2.6 | GUS activities (chimeric PR-1a/GUS gene [2]; tobacco callus transformed with CIB271 (different experiment), 250 g/l spray, 21 hours, H2O spray 2.8): 13.7 nKat MU/mg protein; GUS activities (chimeric PR-1a/GUS gene [2]; tobacco callus transformed with CIB273, 250 g/l spray, 21 hours, H2O spray 0.46): 31.2 nKat MU/mg protein; Specific Activity nKat MU/mg protein (chimeric PR-1a/GUS gene [3]; [23]): 11.8 nKat MU/mg protein; Specific Activity nKat MU/mg protein (chimeric PR-1a/GUS gene [3]; [24]): 11.2 nKat MU/mg protein; Specific Activity nKat MU/mg protein (chimeric PR-1a/GUS gene [3]; [25]): 10.8 nKat MU/mg protein; Specific Activity nKat MU/mg protein (chimeric PR-1a/GUS gene [3]; [26]): 132.5 nKat MU/mg protein; Specific Activity nKat MU/mg protein (chimeric PR-1a/GUS gene [3]; [27]): 28.9 nKat MU/mg protein; Specific Activity nKat MU/mg protein (chimeric PR-1a/GUS gene [3]; [28]): 129.7 nKat MU/mg protein; Specific Activity nKat MU/mg protein (chimeric PR-1a/GUS gene [3]; [29]): 98.2 nKat MU/mg protein; Specific Activity nKat MU/mg protein (chimeric PR-1a/GUS gene [3]; [30]): 58.5 nKat MU/mg protein; Specific Activity nKat MU/mg protein (chimeric PR-1a/GUS gene [3]; [31]): 5.8 nKat MU/mg protein; Specific Activity nKat MU/mg protein (chimeric PR-1a/GUS gene [3]; [32]): 0.1 nKat MU/mg protein; Specific Activity nKat MU/mg protein (chimeric PR-1a/GUS gene [3]; [33]): 8.6 nKat MU/mg protein; Specific Activity nKat MU/mg protein (chimeric PR-1a/GUS gene [3]; [34]): 7.2 nKat MU/mg protein; Specific Activity nKat MU/mg protein (chimeric PR-1a/GUS gene [3]; [35]): 4.3 nKat MU/mg protein
O=C(O)c1ccccc1O [Salicylic acid, salicylic acid] | 11.6 | 20.0 | 6.6 | 2.8 ± .9 nKat MU/mg protein | 43.0 ± 19 | 4.4 ± 2.3 nKat MU/mg protein | 28.8 | 38.7 | 0.4 | 0.6 | 39.2 | 1.9 ± .9 nKat MU/mg protein | 57.1 ± 22 | 19.1 | 13.9 ± 1.2 | 6.92 ± 0.88 | 27.5 ± 0.7 | 4.08 ± 0.58 nKat MU/mg protein | 10.8 | 1.6 | GUS activities (chimeric PR-1a/GUS gene [2]; tobacco callus transformed with CIB271, 50 mM spray, harvested 21 hours after treatment, H2O spray 1.8): 3.8 nKat MU/mg protein; Specific Activity nKat MU/mg protein (chimeric PR-1a/GUS gene [3]; [23]): 8.8 nKat MU/mg protein; Specific Activity nKat MU/mg protein (chimeric PR-1a/GUS gene [3]; [24]): 11.1 nKat MU/mg protein; Specific Activity nKat MU/mg protein (chimeric PR-1a/GUS gene [3]; [25]): 8.1 nKat MU/mg protein; Specific Activity nKat MU/mg protein (chimeric PR-1a/GUS gene [3]; [26]): 59.4 nKat MU/mg protein; Specific Activity nKat MU/mg protein (chimeric PR-1a/GUS gene [3]; [27]): 30.6 nKat MU/mg protein; Specific Activity nKat MU/mg protein (chimeric PR-1a/GUS gene [3]; [28]): 63.9 nKat MU/mg protein; Specific Activity nKat MU/mg protein (chimeric PR-1a/GUS gene [3]; [29]): 70.5 nKat MU/mg protein; Specific Activity nKat MU/mg protein (chimeric PR-1a/GUS gene [3]; [30]): 81.8 nKat MU/mg protein; Specific Activity nKat MU/mg protein (chimeric PR-1a/GUS gene [3]; [31]): 2.5 nKat MU/mg protein; Specific Activity nKat MU/mg protein (chimeric PR-1a/GUS gene [3]; [32]): 0.7 nKat MU/mg protein; Specific Activity nKat MU/mg protein (chimeric PR-1a/GUS gene [3]; [33]): 1.8 nKat MU/mg protein; Specific Activity nKat MU/mg protein (chimeric PR-1a/GUS gene [3]; [34]): 6.4 nKat MU/mg protein; Specific Activity nKat MU/mg protein (chimeric PR-1a/GUS gene [3]; [35]): 2.3 nKat MU/mg protein

From patent US6632981B1, “DNA sequences encoding polypeptides having beta-1,3-glucanase activity” (Novartis Finance Corporation, priority 1988, dated 2003)
